# Values joined by “and” are separate entries in the source; they are usually repeats but may differ in a detail not shown here. Equal values may be shown once.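 In this assay, cells in 96-well plates receive the compound at five concentrations for 48 hours. Endpoints are linearly interpolated between the surrounding concentrations. Here, GI50 denotes the concentration required for 50% inhibition of growth. TGI: concentration producing complete growth inhibition.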
# Legend:
# Assay in all cases: NCI-60 cell line screen, 48 h
# MALME-3M melanoma = test system: MALME-3M melanoma
# T-47D breast = test system: T-47D breast
# NCI-H23 lung = test system: NCI-H23 lung
# MDA-MB-231 breast = test system: MDA-MB-231 breast
# MDA-MB-435 = test system: MDA-MB-435
# SNB-75 CNS = test system: SNB-75 CNS
# SK-OV-3 ovarian = test system: SK-OV-3 ovarian
# HCT-116 colon = test system: HCT-116 colon
# UO-31 renal = test system: UO-31 renal
# SR leukemia = test system: SR leukemia
Structure (SMILES),GI50 (MALME-3M melanoma) [µM],TGI (MALME-3M melanoma),GI50 (T-47D breast) [µM],TGI (T-47D breast) [µM],GI50 (NCI-H23 lung) [µM],TGI (NCI-H23 lung),GI50 (MDA-MB-231 breast) [µM],TGI (MDA-MB-231 breast) [µM],GI50 (MDA-MB-435) [µM],TGI (MDA-MB-435) [µM],GI50 (SNB-75 CNS) [µM],TGI (SNB-75 CNS),GI50 (SK-OV-3 ovarian) [µM],TGI (SK-OV-3 ovarian),GI50 (HCT-116 colon) [µM],TGI (HCT-116 colon),GI50 (UO-31 renal) [µM],TGI (UO-31 renal),GI50 (SR leukemia) [µM],TGI (SR leukemia) [µM]
C=C1C(=O)O[C@H]2[C@H]1CC/C(COC(=O)c1cc(OC)c(OC)c(OC)c1)=C\CC[C@@]1(C)O[C@@H]21,1.77,3.77 µM,0.931,3.54,1.7,3.95 µM,1.54,4.16,1.64,4.13,7.92,21.6 µM,5.22,16.8 µM,0.409,1.48 µM,0.402,1.7 µM,0.342,7.33
COC(=O)NC1C(C)OC(OC2C/C=C(/C)C3C=CC4C(OC5CC(OC6CCC(OC7CC(O)C(OC8CCC(O)C(C)O8)C(C)O7)C(C)O6)C(OC(C)=O)C(C)O5)C(C)CC(C)C4C3(C)/C(O)=C3/C(=O)OC4(CC(C=O)=CC(O)C4/C=C\2C)C3=O)CC1(C)[N+](=O)[O-] (stereo unspecified),0.12,1.62 µM and 0.292 µM,,10.2,0.171,2.22 µM and 0.403 µM,,3.49,,1.06,1.06,5.14 µM and 3.27 µM,2.85,7.51 µM and 8.97 µM,0.146,2.05 µM and 0.289 µM,0.254,3.76 µM and 0.521 µM,,11
Oc1ccc(Cl)cc1C(c1cc(Cl)ccc1O)C(Cl)(Cl)Cl,1.5,3.91 µM,3.32,12.4,1.73,3.96 µM,1.71,3.86,1.95,4.21,2.17,9.57 µM,2.94,9.76 µM,1.56,2.97 µM,1.5,4.78 µM,1.5,5.34
